In patent publication US10988465B2, “CXCR4 inhibitors and uses thereof” (X4 Pharmaceuticals, Inc., priority 2016, dated 2021):

Key:
[1] = target: T1, CXCR-4 transfected U87 cell line (U87.CXCR4) (Homo sapiens, UniProt P61073); test: Intracellular CXCL-12-induced calcium mobilization assay (FLIPR); type: cell-based; settings: U87.CXCR4 cells; CXCL-12 25-50 ng/mL; compound added 15 min before; read-out: IC50 CXCL-12 Ca^2+ flux U87.CXCR4+
T1 construct: expressed in transfected cells; host or cells: U87 (U87.CXCR4)
T1 sequence (P61073 whole entry): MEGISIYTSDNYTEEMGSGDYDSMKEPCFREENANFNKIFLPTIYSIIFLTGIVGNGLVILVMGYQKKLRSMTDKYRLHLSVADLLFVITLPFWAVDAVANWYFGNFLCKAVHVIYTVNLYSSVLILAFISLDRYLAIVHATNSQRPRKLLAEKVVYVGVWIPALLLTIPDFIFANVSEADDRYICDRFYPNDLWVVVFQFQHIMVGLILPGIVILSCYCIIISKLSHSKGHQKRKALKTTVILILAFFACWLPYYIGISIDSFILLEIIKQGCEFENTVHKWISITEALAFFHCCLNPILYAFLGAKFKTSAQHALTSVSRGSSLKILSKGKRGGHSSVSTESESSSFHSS
Summary of the method: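 U87 cells stably expressing human CXCR4, loaded with Fluo-2 AM (4 μM final) for 45 min at 37 °C in HBSS/20 mM HEPES/0.2% BSA, pH 7.4. Calcium flux triggered by CXCL-12 (25-50 ng/mL) was followed by FLIPR fluorescence over time at 37 °C.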

[2] = target: T2, Jurkat cells expressing CXCR4 (Homo sapiens, UniProt P61073); test: Chemokine (CXCL12-AF647) binding inhibition assay; settings: CXCL12-AF647 25 ng/mL, read-out: IC50 CXCL-12 binding Jurkat
T2 construct: endogenous in cells; host or cells: Jurkat
T2 sequence (P61073 whole entry): as above
Summary of the method: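 Cells in HBSS, 20 mM HEPES, 0.2% BSA, pH 7.4, preincubated 15 min at room temperature with compound, then 25 ng/mL CXCL12-AF647 for 30 min. After washing and paraformaldehyde fixation, bound ligand read by flow cytometry; percent inhibition calculated from MFI relative to unlabeled and ligand-only controls.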

[3] = in vitro; settings: human, Caco-2, pH 7.4
Summary of the method: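 Caco-2 monolayers, checked by TEER with Lucifer yellow as marker, were dosed with 10 μM compound in HBSS pH 7.4 in A-to-B and B-to-A directions. Incubation was 90 min at 37° C, in duplicate. Samples were quantified by LC-MS/MS and Papp calculated.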

Row | Structure (SMILES) | IC50 [1] [nM] | IC50 [2] [nM] | Papp A→B at 90 min, 10 μM [3] [×10⁻⁶ cm/s] | Papp B→A at 90 min, 10 μM [3] [×10⁻⁶ cm/s] | efflux ratio at 90 min, 10 μM [3]
1 | Cc1ccnc([C@@H]2CCC[C@H](c3nc4cccc(N5CCN(C)CC5)c4[nH]3)N2C)c1Cl [I-116] | 100 to 1000 | 0.01 to 100 | 10 to 30 | 10 to 30 | 0.1 to 10
2 | Cc1cccnc1[C@@H]1CCC[C@H](c2nc3cccc(N4CC5CCC(C4)N5C)c3[nH]2)N1 [I-118] | 0.01 to 100 | 0.01 to 100 | 0.1 to 10 | > 30 | 10 to 30
3 | CN1C2CCC1CN(c1cccc3nc([C@H]4CCC[C@@H](c5ncccc5Cl)N4)[nH]c13)C2 [I-119] | 100 to 1000 | 0.01 to 100 | 10 to 30 | 10 to 30 | 0.1 to 10
4 | CN1CC2CCC(C1)N2c1cccc2nc([C@H]3CCC[C@@H](c4ncccc4Cl)N3)[nH]c12 [I-121] | 0.01 to 100 | 0.01 to 100 | 10 to 30 | 10 to 30 | 0.1 to 10
5 | Cc1cccnc1[C@@H]1CCC[C@H](c2nc3cccc(N4CCN(C)CC4)c3n2C)N1 [I-123] | 0.01 to 100 | 0.01 to 100 | 0.1 to 10 | 10 to 30 | 0.1 to 10
6 | Cc1cccnc1[C@@H]1CCC[C@H](c2nc3cccc(N4CCN(C5CC5)CC4)c3[nH]2)N1 [I-125] | 0.01 to 100 | 0.01 to 100 | 10 to 30 | 10 to 30 | 0.1 to 10
7 | Cc1cccnc1[C@@H]1CCC[C@H](c2nc3cccc(N4CCN5CCCC5C4)c3[nH]2)N1 (stereo partly shown) [I-126] | 0.01 to 100 | 0.01 to 100 | 0.1 to 10 | 10 to 30 | 0.1 to 10
8 | Cc1cccnc1[C@@H]1CCC[C@H](c2nc3cccc(N4CCNC5(CC5)C4)c3[nH]2)N1C [I-129] | 100 to 1000 | 0.01 to 100 | 10 to 30 | 10 to 30 | 0.1 to 10
9 | Cc1cccnc1[C@@H]1CCC[C@H](c2nc3ccccc3n2C2CCN(C)CC2)N1C [I-130] | 0.01 to 100 | 0.01 to 100 | 10 to 30 | 10 to 30 | 0.1 to 10
10 | Cc1cccnc1[C@@H]1CCC[C@H](c2nc3ccccc3n2C2CCN(C)CC2)N1 [I-131] | 100 to 1000 | 0.01 to 100 | 0.1 to 10 | 10 to 30 | 0.1 to 10
11 | CN1CCN(c2cccc3nc([C@H]4CCC[C@@H](c5ncccc5Cl)N4)[nH]c23)CC12CC2 [I-133] | ≥ 1000 | 0.01 to 100 | 10 to 30 | 10 to 30 | 0.1 to 10
12 | CN1CCC(n2c([C@H]3CCC[C@@H](c4ncccc4Cl)N3C)nc3ccccc32)CC1 [I-134] | 0.01 to 100 | 0.01 to 100 | 10 to 30 | 10 to 30 | 0.1 to 10
13 | CN1CCC(n2c([C@H]3CCC[C@@H](c4ncccc4Cl)N3)nc3ccccc32)CC1 [I-135] | 0.01 to 100 | 0.01 to 100 | 10 to 30 | 10 to 30 | 0.1 to 10
14 | Cc1cccnc1[C@@H]1CCC[C@H](c2nc3cccc(N4CCNCC4)c3[nH]2)N1C [I-136] | 0.01 to 100 | 0.01 to 100 | 0.1 to 10 | 10 to 30 | 10 to 30
15 | Cc1c(Cl)ccnc1[C@@H]1CCC[C@H](c2nc3cccc(N4CCN(C)CC4)c3[nH]2)N1 [I-140] | 0.01 to 100 | 0.01 to 100 | 0.1 to 10 | 10 to 30 | 0.1 to 10
16 | Cc1cccnc1[C@@H]1CCC[C@H](c2nc3c(N4CCN(C)CC4)cccc3n2C)N1 [I-141] | ≥ 1000 | ≥ 1000 | 10 to 30 | 10 to 30 | 0.1 to 10
17 | Cc1cc(F)cnc1[C@@H]1CCC[C@H](c2nc3cccc(N4CCN(C)CC4)c3[nH]2)N1 [I-142] | 0.01 to 100 | 0.01 to 100 | 0.1 to 10 | 10 to 30 | 0.1 to 10
18 | Clc1cccnc1[C@@H]1CCC[C@H](c2nc3cccc(N4CCN(C5CC5)CC4)c3[nH]2)N1 [I-143] | 0.01 to 100 | 0.01 to 100 | 10 to 30 | 10 to 30 | 0.1 to 10
19 | CC(C)N1CCN(c2cccc3nc([C@H]4CCC[C@@H](c5ncccc5Cl)N4)[nH]c23)CC1 [I-148] | 0.01 to 100 | 0.01 to 100 | 10 to 30 | 10 to 30 | 0.1 to 10
20 | CCN1CCN(c2cccc3nc([C@H]4CCC[C@@H](c5ncccc5Cl)N4)[nH]c23)CC1 [I-149] | 0.01 to 100 | 0.01 to 100 | 10 to 30 | 10 to 30 | 0.1 to 10
21 | CN1[C@@H](c2nc3cccc(N4CCN5CCCC5C4)c3[nH]2)CCC[C@H]1c1ncccc1Cl (stereo partly shown) [I-150] | 0.01 to 100 | 0.01 to 100 | 10 to 30 | 10 to 30 | 0.1 to 10
22 | Cc1cccnc1[C@@H]1CCC[C@H](c2nc3cccc(C4CCN(C)CC4)c3[nH]2)N1 [I-151] | 0.01 to 100 | 0.01 to 100 | 0.1 to 10 | 10 to 30 | 0.1 to 10
23 | CN1CCC(c2cccc3nc([C@H]4CCC[C@@H](c5ncccc5Cl)N4)[nH]c23)CC1 [I-152] | 0.01 to 100 | 0.01 to 100 | 0.1 to 10 | 10 to 30 | 0.1 to 10
24 | CN(C)C1CCN(c2cccc3nc([C@H]4CCC[C@@H](c5ncccc5Cl)N4)[nH]c23)CC1 [I-153] | 0.01 to 100 | 0.01 to 100 | 0.1 to 10 | 10 to 30 | 0.1 to 10
25 | CN1CCC(n2c([C@H]3CCC[C@@H](c4ccccn4)N3)nc3ccccc32)CC1 [I-154] | 100 to 1000 | 0.01 to 100 | 10 to 30 | 10 to 30 | 0.1 to 10
26 | Cc1cccnc1[C@@H]1CCC[C@H](c2nc3ccccc3n2CCCN(C)C)N1 [I-155] | ≥ 1000 | 0.01 to 100 | 0.1 to 10 | > 30 | 0.1 to 10
27 | COCCCn1c([C@H]2CCC[C@@H](c3ncccc3C)N2)nc2ccccc21 [I-158] | ≥ 1000 | ≥ 1000 | 10 to 30 | 10 to 30 | 0.1 to 10
28 | Cc1cccnc1[C@@H]1CCC[C@H](c2nc3ccccc3n2CCC#N)N1 [I-159] | ≥ 1000 | ≥ 1000 | 10 to 30 | 10 to 30 | 0.1 to 10
29 | Cc1cccnc1[C@@H]1CCC[C@H](c2nc3ccccc3n2CCC#N)N1C [I-160] | ≥ 1000 | 100 to 1000 | > 30 | > 30 | 0.1 to 10
